According to the supplement of paper PMC10307832:

Columns and labels:
Assay in all cases: relative viability (nuclei count vs DMSO), 5 days (fraction); higher = more cells survive
AT-7519 + Navitoclax = compound: O=C(NC1CCNCC1)c1n[nH]cc1NC(=O)c1c(Cl)cccc1Cl [AT-7519] + CC1(C)CCC(c2ccc(Cl)cc2)=C(CN2CCN(c3ccc(C(=O)NS(=O)(=O)c4ccc(N[C@H](CCN5CCOCC5)CSc5ccccc5)c(S(=O)(=O)C(F)(F)F)c4)cc3)CC2)C1 [Navitoclax] (partner 0.5 µM)
In short: (§1)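 Lung cancer cell lines, seeded in 1536-well plates, were treated the following day by pin tool with a single drug or with five library-drug doses (not always all listed) in √10 steps on top of a fixed anchor-drug dose. Cells were fixed and nuclei stained in one step after 5 days, and nuclei were counted. Relative viability is the nuclei count for treated wells divided by that for vehicle wells, reported as medians of duplicate plates.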

AT-7519 + Trametinib = compound: O=C(NC1CCNCC1)c1n[nH]cc1NC(=O)c1c(Cl)cccc1Cl [AT-7519] + CC(=O)Nc1cccc(-n2c(=O)n(C3CC3)c(=O)c3c(Nc4ccc(I)cc4F)n(C)c(=O)c(C)c32)c1 [Trametinib] (partner 0.02 µM)
In short: as §1

[1] = compound: C1=CC2=C(C=C(C(=C2N=C1)O)N=NC3=CC4=C(C=C3)C=C(C=C4)S(=O)(=O)O)S(=O)(=O)O + O=C(CCCCCCC(=O)Nc1ccccc1)NO [Vorinostat] (partner 1 µM)
In short: as §1

[2] = compound: C1=CC2=C(C=C(C(=C2N=C1)O)N=NC3=CC4=C(C=C3)C=C(C=C4)S(=O)(=O)O)S(=O)(=O)O + COc1cc2c(Oc3ccc(NC(=O)C4(C(=O)Nc5ccc(F)cc5)CC4)cc3F)ccnc2cc1OCCCN1CCOCC1 [Foretinib] (partner 0.25 µM)
In short: as §1

Row | Cell Line | relative viability (AT-7519 + Navitoclax; first compound 0.01 µM) | relative viability (AT-7519 + Navitoclax; first compound 0.03162 µM) | relative viability (AT-7519 + Navitoclax; first compound 0.3162 µM) | relative viability (AT-7519 + Navitoclax; first compound 1 µM) | relative viability (AT-7519 + Trametinib; first compound 0.01 µM) | relative viability (AT-7519 + Trametinib; first compound 0.03162 µM) | relative viability (AT-7519 + Trametinib; first compound 0.3162 µM) | relative viability (AT-7519 + Trametinib; first compound 1 µM) | relative viability ([1]; first compound 0.08 µM) | relative viability ([1]; first compound 0.253 µM) | relative viability ([1]; first compound 0.8 µM) | relative viability ([1]; first compound 2.53 µM) | relative viability ([1]; first compound 8 µM) | relative viability ([2]; first compound 0.08 µM) | relative viability ([2]; first compound 0.253 µM) | relative viability ([2]; first compound 0.8 µM) | relative viability ([2]; first compound 2.53 µM) | relative viability ([2]; first compound 8 µM)
1 | LCLC-97TM1 | 0.637 | 0.31 | 0.461 | 0.398 | 0.175 | 0.173 | 0.224 | 0.117 | 0.593 | 0.657 | 0.632 | 0.575 | 0.715 | 0.938 | 0.932 | 0.865 | 0.93 | 0.986
2 | LK-2 | 0.76 | 0.75 | 0.77 | 0.745 | 0.643 | 0.67 | 0.716 | 0.271 | 0.308 | 0.333 | 0.292 | 0.263 | 0.178 | 1.33 | 1.3 | 0.899 | 0.911 | 1.37
3 | LOU-NH91 | 0.668 | 0.629 | 0.693 | 0.525 | 0.805 | 0.774 | 0.792 | 0.726 | 1 | 0.89 | 0.903 | 0.865 | 0.639 | 0.974 | 0.946 | 0.93 | 0.917 | 1.01
4 | LU99A | 0.846 | 0.782 | 0.745 | 0.382 | 0.67 | 0.53 | 0.52 | 0.24 | 0.534 | 0.445 | 0.63 | 0.494 | 0.53 | 0.958 | 0.812 | 0.684 | 0.913 | 0.732
5 | LXF-289 | 0.984 | 1.07 | 1 | 0.917 | 0.7 | 0.638 | 0.657 | 0.493 | 0.75 | 0.719 | 0.817 | 0.704 | 0.766 | 1.09 | 0.987 | 0.998 | 0.974 | 0.914
6 | NCI-H23 | 0.858 | 0.622 | 1.02 | 0.461 | 0.338 | 0.355 | 0.33 | 0.164 | 0.661 | 0.627 | 0.599 | 0.561 | 0.633 | 0.544 | 0.923 | 0.925 | 1.04 | 0.84
7 | NCI-H322M | 1.07 | 1.16 | 1.09 | 1.07 | 0.531 | 0.444 | 0.539 | 0.525 | 0.967 | 0.825 | 0.864 | 0.856 | 0.905 | 1.1 | 0.989 | 0.919 | 0.89 | 0.95
8 | NCI-H441 | 0.592 | 0.628 | 0.571 | 0.412 | 0.429 | 0.474 | 0.32 | 0.23 | 0.903 | 0.684 | 0.845 | 0.805 | 0.837 | 1.11 | 1.06 | 1.04 | 1.07 | 1.05
